Experiment [1] relates to NK-92 natural killer cells. Briefly: Western blot analysis of NK-92 natural killer cells. It counts as cell-based, human. To be noted: through the 72-hour endpoint. As for the experimental part:
(§1) Cells were plated in a 6-well plate and incubated overnight before the spent media was replaced with drugged media. Drug treatment lasted for indicated durations. Protein was extracted using radioimmunoprecipitation (RIPA) assay buffer (Cat #R0278, Sigma-Aldrich, St. Louis, MO) containing cOmplete™, Mini, EDTA-free Protease Inhibitor Cocktail (Cat #4693159001, Roche, Basel, Switzerland) from sub-confluent cells. Denaturing sample buffer was added, samples were boiled at 95 degrees for 10 minutes, and an equal amount of protein lysate was electrophoresed through NuPAGE™ 4 to 12%, Bis-Tris, 1.5 mm, Mini Protein Gels (Invitrogen, Waltham, MA) then transferred to PVDF membranes. The PVDF membrane was blocked with 5% non-fat milk (Sigma-Aldrich, St. Louis, MO) in 1×TTBS. Primary antibodies were incubated with the transferred PVDF membrane in blocking buffer at 4° C. overnight. Secondary antibodies used included Goat anti-Rabbit IgG (H+L) Secondary Antibody, HRP (Cat #31460, Invitrogen, Waltham, MA), and Goat anti-Mouse IgG (H+L) Secondary Antibody, HRP (Cat #31430, Invitrogen, Waltham, MA). Signal was detected using Pierce™ ECL Western Blotting Substrate (Cat #32106, Thermo Scientific, Waltham, MA, USA) and a Syngene Imaging System (RRID: SCR_015770).

In another experiment the test system is HT-29 cells. As to the kind of experiment: Microarray gene expression analysis, HT-29. It counts as cell-based, human. As for the experimental part: (§2) A total of 0.5×10^6 tumor cells (HCT-116, HT-29, KM12C) were plated in a 6-well plate and allowed to adhere overnight before 24-hour treatment as indicated. 1×10^6 immune cells (NK92, TALL-104) were plated and treated with elraglusib as indicated for 24 hours. RNA was isolated from cell pellets in batches of 6 using an RNeasy Plus Mini Kit (Cat #74134, Qiagen, Hilden, Germany). Acceptable RNA concentration and quality were verified with Nanodrop and Bioanalyzer measurements. GeneChip™ Human Transcriptome Array 2.0 assays were conducted according to manufacturer instructions in two batches using randomized samples to limit batch effects (Cat #902162, Applied Biosystems, Waltham, MA, USA). Applied Biosystems Transcriptomic Analysis Console (TAC) software (RRID: SCR_016519) was used to calculate fold changes in gene expression relative to the untreated control cells. Values were considered statistically significant for p values <0.05.

For another experiment, the system named is NK-92 cells. As to the kind of experiment: Microarray gene expression analysis, NK-92. It counts as cell-based, human. To be noted: IC-50 concentration (1 μM), 24 hours; FC cutoff >1.5, <−1.5, p<0.05. As for the experimental part:
as §2

In experiment [2] the test system is refractory solid tumors of multiple tissue origins. Briefly: Phase 1 clinical trial of elraglusib (NCT03678883), PFS and OS. Format: in vivo, human. The note with it: patients analysed, n=19, multiple tumor types. The procedure:
Archival tumor specimens and peripheral blood samples were collected from patients enrolled in the Phase I study of Elraglusib (9-ING-41), a small molecule selective glycogen synthase kinase-3 beta (GSK-3b) inhibitor, as monotherapy or combined with cytotoxic regimens in patients with relapsed or refractory hematologic malignancies or solid tumors (Clinicaltrials.gov NCT03678883) who received treatment at the Lifespan Cancer Institute (Providence, RI, USA). The study was conducted in accordance with the Declaration of Helsinki and the International Conference on Harmonization Good Clinical Practice guidelines. The study protocol was approved by the Institutional Review Board (IRB) of Rhode Island Hospital under protocol number 1324888-120. The patients also participated in a Lifespan Cancer Institute research protocol designed to investigate molecular and genetic features of tumors and mechanisms of resistance (Rhode Island Hospital IRB protocol number 449060-38). All patients provided written informed consent.

Another experiment has as its system HT-29 CRC cells. As to the kind of experiment: Western blot analysis of HT-29 CRC cells. It counts as cell-based, human. The procedure:
Recombinant Human TNF-α (Cat #300-01A, PeproTech, Rocky Hill, NJ, USA) and Recombinant Human IFN-γ (Cat #300-02, Peprotech, Rocky Hill, NJ, USA) were purchased for use in western blot analysis while rhTRAIL was generated in-house. Kim et al., J Biol Chem., 279(38):40044-52 (2004).
as §1
(Immunoblotting shows a protein as a band on a membrane.)

Where [3] appears, read: especially at later timepoints (48, 72 hr).

Consider `Cn1cc(C2=C(c3coc4ccc(F)cc34)C(=O)NC2=O)c2cc3c(cc21)OCO3` [elraglusib, 3-(5-fluorobenzofuran-3-yl)-4-(5-methyl-5H-[1,3]dioxolo[4,5-f]indol-7-yl)-1H-pyrrole-2,5-dione], for which, in experiment [1], the Mcl-1 protein expression result is given as “did not observe a significant decrease”. In the experiment with HT-29 cells (24 hours vs DMSO), the “NCR3LG1 (B7-H6) gene expression fold change” value is 1.78 FC and the “downregulated genes in VEGFA-VEGFR2 signaling pathway” value was 37. Besides, the “differentially expressed genes post-treatment” value in the experiment on HT-29 cells (IC-50 concentration (1 μM), 24 hours, FC cutoff >1.5, <−1.5, p<0.05) is 2,307. Also, in the experiment with NK-92 cells, the “differentially expressed genes post-treatment” value is 61. Further, in experiment [2], the “median OS” value worked out at 101 days and the “median PFS” value is listed as 75.9 days. Also, the “NF-κB p65 expression” value in the experiment with HT-29 CRC cells (as the 0-72 hour time-course progressed) was “decreased expression”. Further, in the experiment with HT-29 CRC cells (as the treatment duration increased (0-72 hours)), the PD-L1 expression entry is listed as “increases in PD-L1 expression”. In the experiment on HT-29 CRC cells (setting [3]), the Bcl-2 protein expression entry is “decreases in protein expression” and the Survivin protein expression result was “decreases in protein expression”. Also, the “cleaved PARP (cPARP)” value with HT-29 CRC cells (low dose as in co-culture assays, until the 48-hour timepoint of 72-hour timecourse) is “little to no cleaved PARP”.

The record behind these values is patent US20260256741A1, “ANTICANCER MALEIMIDE DERIVATIVES FOR USE WITH IMMUNE CHECKPOINT BLOCKADE” (BROWN UNIVERSITY, priority 2022, published 2026).
